Source: patent US8445462B2, “Composition for the treatment of osteoarthritis” (Bioiberica, S.A., priority 2007, dated 2013)
Where a name gives a salt, the structure may show the parent alone.

System: experimental osteoarthritis induced by partial medial meniscectomy in guinea pigs
Experiment: Experimental osteoarthritis induced by partial medial meniscectomy in guinea pigs: chondroprotective activity and modified Mankin histological evaluation
Format: in vivo, Dunkin Hartley (DH) guinea pigs
Conditions: CS 95 mg/kg/day, Man 60 mg/kg/day; for average chondroprotective activity (GAGs, cartilage structure, chondrocyte proliferation): oral gavage once a day for 70 days, blank control group 100%, operated control group 0%; for global histopathological score (modified Mankin) with respect to the operated group, result in words: oral, 70 days
Text: The objective was to evaluate the chondroprotective activity (cartilage protective activity) of a composition formed by a mixture of chondroitin sulphate and mannosamine hydrochloride as sole active components, in a model of experimental osteoarthritis induced by partial medial meniscectomy in guinea pigs (A. M. Bendele, Progressive chronic osteoarthritis in femorotibial joints of partial medial meniscectomized guinea pigs, Vet. Pathol. 24, 444-448 (1987)), comparing said activity with the chondroprotective activity of chondroitin sulphate and of mannosamine hydrochloride.
Dunkin Hartley (DH) guinea pigs with a weight comprised between 580 and 699 g were used. A partial medial meniscectomy was performed in a part of them.
The following treatment groups were formed: blank control group (corresponding to healthy guinea pigs), operated control group (corresponding to guinea pigs in which a partial medial meniscectomy was performed to induce an experimental osteoarthritis in them), operated guinea pigs to which the sodium salt of chondroitin sulphate (95 mg/kg of body weight/day) was administered, operated guinea pigs to which mannosamine hydrochloride (60 mg/kg of body weight/day) was administered, operated guinea pigs to which a mixture of sodium salt of chondroitin sulphate (95 mg/kg of body weight/day) and mannosamine hydrochloride (60 mg/kg of body weight/day) was administered.
On the day after the surgery, the daily administration of the corresponding oral treatments by means of gastric gavage was started, the carrier used being water for injection. The blank control and operated control groups only received the carrier (water for injection) by oral route.
The treatments were administered once a day for 70 days (ten weeks). The body weight and the clinical signs of the animals were recorded twice a day. No remarkable clinical signs were observed throughout the treatment period.
On the day after the administration had ended, the animals were sacrificed by anaesthetic overdose (pentobarbital sodium) and the femorotibial joint of the right rear leg was removed for its fixing in 10% formol for at least 48 hours. Then, they were decalcified, included in paraffin, the necessary sections were obtained and the stainings with Hematoxylin-Eosin and Safranin-O-Fast Green (or Toluidine Blue) were performed for their histological evaluation, which was performed by a pathologist in a blind manner.
The severity of the osteoarthritic injuries was evaluated by means of the modified histologic/histochemical scale of Mankin et al. (H J. Mankin and L. Lipiello Biochemical and metabolic abnormalities in articular cartilage from osteoarthritic human hips. J. Bone Joint Surg.-Amer. 53-A, 523-537 (1971)). […]

| Compound | average chondroprotective activity (GAGs, cartilage structure, chondrocyte proliferation) [%] | global histopathological score (modified Mankin) with respect to the operated group, result in words |
| --- | --- | --- |
| N[C@@H]1C(O)O[C@H](CO)[C@@H](O)[C@@H]1O (stereo partly drawn) [mannosamine hydrochloride, 2-amino-2-deoxy-D-mannose] | −21 | no statistically significant differences |
| chondroitin sulphate | 12 | improvement with respect to the operated group, but without statistical significance |
